From patent US9896441B2 (Lycera Corporation, priority 2014, dated 2018)

Columns and labels:
[1] = target: T1, Gal4-RORγ-LBD (Homo sapiens, UniProt P51449); assay: Gal4-RORγ Luciferase Reporter Assay in HEK-293T Cells; assay type: cell-based; settings: HEK-293 cells; for Gal4-RORγ Assay Max Response: maximum response
T1 construct: expressed in transfected cells
T1 sequence (P51449 269-508 limits assumed): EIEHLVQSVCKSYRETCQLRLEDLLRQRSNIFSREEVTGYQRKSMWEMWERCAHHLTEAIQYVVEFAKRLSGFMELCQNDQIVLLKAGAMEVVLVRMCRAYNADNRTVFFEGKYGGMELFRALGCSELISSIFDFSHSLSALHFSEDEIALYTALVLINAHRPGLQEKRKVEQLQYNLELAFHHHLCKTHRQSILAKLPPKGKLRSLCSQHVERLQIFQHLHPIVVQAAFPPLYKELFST
Description: Assay procedures and results are described below.
In the following protocol, HEK-293 cells were transfected with a construct comprising the Gal4 DNA binding domain fused to the ligand binding domain of RORγ (Gal4-RORγ-LBD) in a pcDNA3.1neo plasmid, and also with a reporter construct comprising pGL4.31 Gal4-luciferase (Promega). Control cells were prepared similarly using empty pcDNA3.1neo and pGL4.31 vectors.
Trans-IT reagent (Mirus, 60 μL) at room temperature was added drop wise to OptiMEM (Invitrogen, 1.5 ml). This reagent mixture was mixed by inversion then incubated for 5 to 30 minutes at room temperature. It then was added to a solution of both expression vectors (5 μg each), mixed, and incubated at room temperature for about 20 minutes. HEK-293 cells were harvested from incubation flasks by removing the media, treating with TrypLE Express (Invitrogen), and incubating until the cells detached from the bottom of the flask (approximately 2-5 minutes). 10 Million cells were collected by centrifugation and re-suspended in 10 mL of Dulbecco's Modified Eagle Medium, High Glucose (DMEM, Invitrogen) containing 10% Fetal Bovine Serum and 100 IU each of penicillin and streptomycin. The re-suspended cells and the transfection mixture were added to a T75 flask, mixed and incubated overnight at 37° C. and 5% CO2.
The cells were harvested as described above, counted, and centrifuged to obtain the desired number of cells, then re-suspended in complete growth media at 0.75×10^6 cells/mL. The RORγ antagonist, ursolic acid, was added to the cells at a final concentration of […]. Cells were plated at 20 µL of cell suspension/well (10,000-15,000 cells/well) in white tissue culture treated 384 well plates. Test compounds were dissolved at 10 mM in DMSO then diluted into complete growth medium to 5× the final intended test concentration. These drug stock solutions, 5 µL/well were added to the tissue culture plate. The final DMSO concentration was 0.2%. The plates were briefly centrifuged then incubated overnight at 37° C. and 5% CO2. To conduct the assay, the tissue culture plates were allowed to equilibrate to room temperature and One-Glo luciferase reagent (Promega, 25 µL/well) was added. The plates were briefly centrifuged then incubated at room temperature for 10 minutes. The luciferase intensity was read on an Envision plate reader (Perkin Elmer). […] The luciferase signal in the absence of ursolic acid or test compound is defined at 100. The Max Response is the upper plateau in the signal as determined by line-fit using a 4-parameter logistic model in PRISM (GraphPad).

[2] = target: T2, RORγ-LBD (Homo sapiens, UniProt P51449); assay: RORγ-Ligand Binding Domain (LBD) TR-FRET Assay; assay type: biochemical; settings: for TR-FRET Assay Max Response: maximum response;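 for TR-FRET Assay Max Response: 665/615 nm signal ratio set to 100 without ursolic acid or test compound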
T2 construct: made in house; host or cells: SF9 cells (baculovirus); used as diluted lysate
T2 sequence (P51449 269-508 limits assumed): T1 sequence (P51449 269-508 limits assumed)
Summary of the method: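 His-tagged RORγ-LBD from SF9 baculovirus lysate, ~3 nM final, in 50 mM Tris pH 7.0, 50 mM KCl, 1 mM EDTA, 0.1 mM DTT, 0.01% BSA. Biotinylated SRC1 LXXLL peptide at 200 nM final with 2 μM ursolic acid; TR-FRET read-out, 1% DMSO final.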

[3] = luciferase reporter, in presence of ursolic acid
[4] = luciferase reporter, with ursolic acid
[5] = ursolic acid present, luciferase readout
[6] = with 2 μM ursolic acid (RORγ antagonist), highest test concentration 10 μM

Structure (SMILES) | EC50 [1, 3] [nM] | Gal4-RORγ Assay Max Response [1, 3] | EC50 ([2]; RORγ-LBD TR-FRET assay) [nM] | TR-FRET Assay Max Response ([2]; RORγ-LBD TR-FRET assay) | EC50 [1, 4] [nM] | EC50 ([2]; RORγ-LBD TR-FRET) [nM] | EC50 [1, 5] [nM] | EC50 [2, 6] [nM]
C/C(=C\c1ccc2c(c1)N(S(=O)(=O)c1cccc(C(F)(F)F)c1)CCC2(F)F)c1c(F)cccc1Cl [Example 189, (E)-7-(2-(2-Chloro-6-fluorophenyl)prop-1-en-1-yl)-4,4-difluoro-1-((3-(trifluoromethyl)phenyl)sulfonyl)-1,2,3,4-tetrahydroquinoline] | 500 to 5000 | ** (a value in the range of greater than 90 to 150) | < 500 | *** (a value in the range of greater than 150 to 200) |  |  |  | 
C/C(=C\c1ccc2c(c1)N(S(=O)(=O)c1cccc(C(F)(F)F)c1)C[C@H](CCC(=O)N1CC3(COC3)C1)O2)c1c(F)cccc1Cl [Example 127D, (S,E)-3-(6-(2-(2-chloro-6-fluorophenyl)prop-1-en-1-yl)-4-((3-(trifluoro-methyl)phenyl)sulfonyl)-3,4-dihydro-2H-benzo[b][1,4]oxazin-2-yl)-1-(2-oxa-6-azaspiro[3.3]heptan-6-yl)propan-1-one] | < 500 | ** (a value in the range of greater than 90 to 150) | < 500 | **** (a value greater than 200) |  |  |  | 
COc1cc(S(=O)(=O)N2c3cc(OCc4c(F)cccc4Cl)ccc3C=C(CN)[C@H]2C)ccc1F [Example 139, (R)-(7-((2-Chloro-6-fluorobenzyl)oxy)-1-((4-fluoro-3-methoxyphenyl)sulfonyl)-2-methyl-1,2-dihydroquinolin-3-yl)methanamine] | 500 to 5000 |  | < 500 |  |  |  |  | 
COC(=O)CC[C@H]1CN(S(=O)(=O)c2cccc(OC(F)F)c2)c2cc(/C=C/c3c(F)cccc3C(F)(F)F)ccc2O1 [Example 89AJ, (S,E)-methyl 3-(4-((3-(difluoromethoxy)phenyl)sulfonyl)-6-(2-fluoro-6-(trifluoromethyl)-styryl)-3,4-dihydro-2H-benzo[b][1,4]oxazin-2-yl)propanoate] |  |  |  |  | 500 to 5000 | < 500 |  | 
COc1cc(S(=O)(=O)N2c3cc(OCc4c(F)cccc4Cl)ccc3C=C(CNC(C)=O)[C@H]2C)ccc1F [Example 140, (R)—N-((7-((2-Chloro-6-fluorobenzyl)oxy)-1-((4-fluoro-3-methoxyphenyl)sulfonyl)-2-methyl-1,2-dihydroquinolin-3-yl)methyl)acetamide] | < 500 |  | < 500 |  |  |  |  | 
COc1cc(S(=O)(=O)N2c3cc(/C=C/c4c(F)cccc4Cl)ccc3C[C@@H](O)[C@H]2C)ccc1F (racemic) [Example 168, (2R,3R)-7-((E)-2-Chloro-6-fluorostyryl)-1-((4-fluoro-3-methoxyphenyl)sulfonyl)-2-methyl-1,2,3,4-tetrahydroquinolin-3-ol] | < 500 | * (a value in the range of 30 to 90) | < 500 | *** (a value in the range of greater than 150 to 200) |  |  |  | 
COC(=O)C(C)(C)C[C@@H]1Cc2ccc(/C=C/c3c(F)cccc3Cl)cc2N(S(=O)(=O)c2ccc(F)c(OC)c2)C1 [Example 153, Methyl (S,E)-3-(7-(2-chloro-6-fluorostyryl)-1-((4-fluoro-3-methoxyphenyl)sulfonyl)-1,2,3,4-tetrahydroquinolin-3-yl)-2,2-dimethylpropanoate] | > 10000 | * (a value in the range of 30 to 90) | < 500 | *** (a value in the range of greater than 150 to 200) |  |  |  | 
CCn1cc(S(=O)(=O)N2C[C@H](CCC(=O)O)Oc3ccc(/C=C(\C)c4c(F)cccc4Cl)cc32)c(OCCO)n1 [Example 80, (S,E)-3-(6-(2-(2-Chloro-6-fluorophenyl)prop-1-en-1-yl)-4-((1-ethyl-3-(2-hydroxyethoxy)-1H-pyrazol-4-yl)sulfonyl)-3,4-dihydro-2H-benzo[b][1,4]oxazin-2-yl)propanoic acid] |  |  |  |  | 500 to 5000 | < 500 |  | 
O=C(O)CC[C@H]1CN(S(=O)(=O)c2cccc(C(F)(F)F)c2)c2cc(/C=C/c3cccnc3C(F)(F)F)ccc2O1 [Example 89CK, (S,E)-3-(4-((3-(trifluoromethyl)-phenyl)sulfonyl)-6-(2-(2-(trifluoromethyl)pyridin-3-yl)vinyl)-3,4-dihydro-2H-benzo[b][1,4]oxazin-2-yl)propanoic acid] |  |  |  |  | 500 to 5000 | < 500 |  | 
O=C(O)C[C@H]1CN(S(=O)(=O)c2cccc(C(F)(F)F)c2)c2cc(COc3c(F)cccc3Cl)ccc2O1 |  |  |  |  |  |  | 500 to 5000 | < 500
O=C(O)CC[C@H]1CN(S(=O)(=O)c2cccc(C(F)(F)F)c2)c2cc(CCc3c(F)cccc3Cl)ccc2O1 |  |  |  |  |  |  | 500 to 5000 | < 500
CCn1cc(S(=O)(=O)N2C[C@H](CNC(C)=O)Oc3c(F)cc(/C=C(\C)c4c(F)cccc4Cl)cc32)c(Cl)n1 [Example 109A, (S,E)-N-((4-((3-chloro-1-ethyl-1H-pyrazol-4-yl)sulfonyl)-6-(2-(2-chloro-6-fluorophenyl)prop-1-en-1-yl)-8-fluoro-3,4-dihydro-2H-benzo[b][1,4]oxazin-2-yl)methyl)acetamide] | < 500 | * (a value in the range of 30 to 90) | < 500 | *** (a value in the range of greater than 150 to 200) |  |  |  | 
C/C(=C\c1ccc2c(c1)N(S(=O)(=O)c1cn(C3CC3)nc1OCCO)C[C@H](CCC(=O)O)O2)c1c(F)cccc1Cl [Example 85, (S,E)-3-(6-(2-(2-Chloro-6-fluorophenyl)prop-1-en-1-yl)-4-((1-cyclopropyl-3-(2-hydroxyethoxy)-1H-pyrazol-4-yl)sulfonyl)-3,4-dihydro-2H-benzo[b][1,4]oxazin-2-yl)propanoic acid] |  |  |  |  | < 500 | < 500 |  | 
C/C(=C\c1ccc2c(c1)N(S(=O)(=O)c1cccc(C(F)(F)F)c1)C[C@H]([C@H](C)O)O2)c1c(F)cccc1Cl [Example 96, (S)-1-((R)-6-((E)-2-(2-Chloro-6-fluorophenyl)prop-1-en-1-yl)-4-((3-(trifluoromethyl)phenyl)sulfonyl)-3,4-dihydro-2H-benzo[b][1,4]oxazin-2-yl)ethan-1-ol] |  |  |  |  | < 500 | < 500 |  | 
CCOc1ncc(C(F)(F)F)cc1S(=O)(=O)N1C[C@H](CCC(=O)OC)Oc2ccc(/C=C/c3c(F)cccc3Cl)cc21 [Example 89DV, methyl (S,E)-3-(6-(2-chloro-6-fluorostyryl)-4-((2-ethoxy-5-(trifluoromethyl)pyridin-3-yl)sulfonyl)-3,4-dihydro-2H-benzo[b][1,4]oxazin-2-yl)propanoate] |  |  |  |  | 500 to 5000 | < 500 |  | 
COc1cc(S(=O)(=O)N2C[C@H](CCC(C)(C)O)Oc3ccc(/C=C(\C)c4c(F)cccc4Cl)cc32)ccc1F [Example 120, (S,E)-4-(6-(2-(2-Chloro-6-fluorophenyl)prop-1-en-1-yl)-4-((4-fluoro-3-methoxyphenyl)sulfonyl)-3,4-dihydro-2H-benzo[b][1,4]oxazin-2-yl)-2-methylbutan-2-ol] | < 500 | ** (a value in the range of greater than 90 to 150) | < 500 | *** (a value in the range of greater than 150 to 200) |  |  |  | 
C/C(=C\c1ccc2c(c1)N(S(=O)(=O)c1cccc(C(F)(F)F)c1)[C@H](C)[C@H](N)C2)c1c(F)cccc1Cl [Example 147, (2R,3R)-7-((E)-2-(2-Chloro-6-fluorophenyl)prop-1-en-1-yl)-2-methyl-1-((3-(trifluoromethyl)phenyl)sulfonyl)-1,2,3,4-tetrahydroquinolin-3-amine] | 500 to 5000 | ** (a value in the range of greater than 90 to 150) | < 500 | *** (a value in the range of greater than 150 to 200) |  |  |  | 
